# From patent US20200199190A1, “Calcitonin Mimetics for Treating Diseases and Disorders” (KeyBioscience AG, priority 2017, published 2020)
# Entries after “also recorded” stand apart in the source; their conditions may differ. Ends that are not written are not given here.
# Assays:
# Amylin Receptor (AMY-R) = target: T1, Amylin Receptor (AMY-R) (Homo sapiens, UniProt P30988); assay: PathHunter β-arrestin recruitment dose response, amylin receptor activation (CHO-K1 CALCR RAMP3 cells); format: cell-based; conditions: FIGS. 2A-2B
# T1 construct: host or cells: CHO-K1
# T1 sequence (P30988 25-474): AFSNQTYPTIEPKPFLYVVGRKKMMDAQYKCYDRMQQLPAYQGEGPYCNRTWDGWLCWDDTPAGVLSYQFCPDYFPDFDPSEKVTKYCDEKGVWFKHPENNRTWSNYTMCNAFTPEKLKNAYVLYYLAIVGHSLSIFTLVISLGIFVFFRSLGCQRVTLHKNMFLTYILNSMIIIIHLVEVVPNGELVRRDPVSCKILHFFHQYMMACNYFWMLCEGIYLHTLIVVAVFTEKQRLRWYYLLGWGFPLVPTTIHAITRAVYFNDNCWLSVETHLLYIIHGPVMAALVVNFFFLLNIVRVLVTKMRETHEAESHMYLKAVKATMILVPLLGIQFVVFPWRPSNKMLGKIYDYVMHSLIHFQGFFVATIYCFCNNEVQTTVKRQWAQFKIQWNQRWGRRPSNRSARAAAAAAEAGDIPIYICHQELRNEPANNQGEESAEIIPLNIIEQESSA
# T1 sequence (O60896 24-148 partner): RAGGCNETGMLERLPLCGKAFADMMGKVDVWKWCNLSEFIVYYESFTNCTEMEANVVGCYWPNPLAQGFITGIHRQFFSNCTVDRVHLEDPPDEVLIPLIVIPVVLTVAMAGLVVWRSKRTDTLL
# Experimental: FIGS. 2A-2B: β-arrestin recruitment dose response by KBP-046-KBP-054 (FIG. 2A) and KBP-058-KBP-063 (FIG. 2B) as a function of amylin receptor activation. Dose range is 1 μM to 15 μM and data is shown as fold of vehicle. Screening was conducted in CHO-K1 CALCR RAMP3 Pathhunter cells from DiscoveRx.
# (§1) In the following examples, the following materials and methods were employed. The following cell lines expressing the calcitonin, amylin and CGRP receptors were purchased and cultured according to the manufacturer's instructions. • 1. Calcitonin Receptor (CTR): U2OS-CALCR from DiscoveRx (Cat. No.: 93-0566C3). • 2. Amylin Receptor (AMY-R): CHO-K1 CALCR+RAMP3 from DiscoveRx (Cat. No.: 93-0268C2). In independent bioassays, CTR and AMY-R cells were treated with for the indicated timepoints with increasing doses of KBPs identified in Tables 1A and 1B (1000, 250, 62.5, 15.6, 3.9, 1.0, 0.24, 0.06, 0.02 nM and vehicle).
# (§2) PathHunter β-Arrestin GPCR assays are whole cell, functional assays that directly measure the ability of a ligand to activate a GPCR by detecting the interaction of β-Arrestin with the activated GPCR. Because β-arrestin recruitment is independent of G-protein signaling, these assays offer a powerful and universal screening and profiling platform that can be used for virtually any Gi-, Gs, or Gq-coupled receptor.
# (§3) In this system, the GPCR is fused in frame with the small enzyme fragment ProLink™ and co-expressed in cells stably expressing a fusion protein of β-Arrestin and the larger, N-terminal deletion mutant of β-gal (called enzyme acceptor or EA). Activation of the GPCR stimulates binding of β-Arrestin to the ProLink-tagged GPCR and forces complementation of the two enzyme fragments, resulting in the formation of an active β-gal enzyme. This interaction leads to an increase in enzyme activity that can be measured using chemiluminescent PathHunter® Detection Reagents.
# (§4) The assay was performed in white 384 well plates (Greiner Bio-One, 784080). Cells were seeded 2500 cells per well in 10 μL cell-type specific medium the day prior to the experiment. To quantify the GPCR-mediated β-arrestin recruitment the Pathhunter™ Detection Kit (93-0001, DiscoverX) was used and assay performed accordingly to the manufacturer's instructions. Furthermore, data from the Pathhunter™ β-arrestin recruitment assay was normalized to an internal standard to improve the distinction between top KBP performers and non-performers.
# Sprague Dawley Rats = assay: Food intake in healthy Sprague Dawley rats after single s.c. dose; format: in vivo, rat; conditions: single s.c. dose 2.5 μg/kg; for Food Intake ΔFOOD Sustained Attenuation Hours: SD rats fasted overnight, food intake monitored 0-4 h and 4-24 h; for reduction in food intake within the 4 hour interval / time to which the reduction in food intake was maintained (sustained effect) / size of reduction in food intake compared with the other tested peptides: SD rats; for reduction in food intake within the 4 hour interval: 0-4 hours; for time to which the reduction in food intake was maintained (sustained effect): intervals 0-4 and 4-24 hours; for size of reduction in food intake compared with the other tested peptides: FIG. 4A (KBP-046 to -054) and FIG. 4B (KBP-058 to -063)
# Experimental: FIGS. 4A-43: Protracted attenuation of food intake in SD rats by KBP-046-KBP-054 (FIG. 4A) and KBP-058-KBP-063 (FIG. 4B). After single s.c dose of 2.5 μg/kg of KBP, food intake was monitored in intervals of 0-4 h and 4-24 h to assess the protracted action of individual KBPs. Individual rats were single caged, n=4 in each group.
# Rats were single caged four days prior to individual tests. They were randomized by weight into seven groups (Vehicle (0.9% NaCl), KBPs (doses: 2.5 μg/kg). They were fasted overnight and then treated with a single dose of peptide or vehicle in the morning using subcutaneous administration. The food intake was monitored in the following intervals (0-4 hours and 4-24 hours).
# [1] = target: T2, Calcitonin Receptor (CTR) (Homo sapiens, UniProt P30988); assay: Prolonged β-arrestin recruitment, calcitonin receptor activation over time (U2OS CALCR cells); format: cell-based; conditions: single dose of 100 nM at t=0, read up to 72 hours, FIGS. 3A-3B
# T2 construct: host or cells: U2OS
# T2 sequence (P30988 25-474): T1 sequence (P30988 25-474)
# Experimental: FIGS. 3A-3B: Prolonged β-arrestin recruitment by KBP-046-KBP-054 (FIG. 3A) and KBP-058-KBP-063 (FIG. 3B) and human calcitonin as a function of calcitonin receptor activation. Single dose of 100 nM at t=0 and after 3, 6, 24, and 72 hours after initial treatment, β-arrestin recruitment was assessed to investigate each ligands protracted potential. Data is shown as fold of vehicle. Screening was conducted in U2OS CALCR Pathhunter cells from DiscoveRx.
# as §1, §2, §3, §4
# Results are seen in FIGS. 1A-1B, 2A-2B and 3A-3B. […] This was done using the calcitonin receptor (CTR): U2OS-CALCR from DiscoveRx (Cat. No.: 93-0566C3) cell line, and as opposed to the classical three hour output, β-arrestin accumulation was conducted over 24, 48 and 72 hour and then analyzed.
"amylin receptor activation (β-arrestin recruitment, fold of vehicle) (Amylin Receptor (AMY-R))","protracted calcitonin receptor activation (prolonged β-arrestin recruitment, fold of vehicle) [1]",Substance,Food Intake ΔFOOD Sustained Attenuation Hours (Sprague Dawley Rats) [h],reduction in food intake within the 4 hour interval (Sprague Dawley Rats),time to which the reduction in food intake was maintained (sustained effect) (Sprague Dawley Rats) [h],size of reduction in food intake compared with the other tested peptides (Sprague Dawley Rats)
potent amylin agonists,superior,"CGNLSTCMLGRLSQDLNKFHTFPKTDVGANAP (not fully specified; ends and bridges not checked) [KBP-047, Calcitonin mimetic peptide]",24,reduction in food intake,24,largest reduction; also recorded: far greater reduction in food intake
potent amylin agonists,superior,"CGNLSTCMLGRLSQDLNKFHTFPQTDVGANAP (not fully specified; ends and bridges not checked) [KBP-063, Calcitonin mimetic peptide]",24,reduction in food intake,24,far greater reduction in food intake
potent amylin agonists,superior,"CGNLSTCMLGRLTQDFHKLHTFPKTDVGANAP (not fully specified; ends and bridges not checked) [KBP-058, Calcitonin mimetic peptide]",24,reduction in food intake,24,far greater reduction in food intake
potent amylin agonists,superior,"CGNLSTCMLGRLTQDLHKLQTFPKTDVGANAP (not fully specified; ends and bridges not checked) [KBP-053, Calcitonin mimetic peptide]",24,reduction in food intake,24,far greater reduction in food intake
potent amylin agonists,superior,"CGNLSTCMLGRLTQDLNKFHTFPKTDVGANAP (not fully specified; ends and bridges not checked) [KBP-062, Calcitonin mimetic peptide]",24,reduction in food intake,24,largest reduction; also recorded: top performance in the screening; also recorded: far greater reduction in food intake
–,–,"KBP-046: Calcitonin mimetic peptide, Table 1 residues CGNLSTCMLGTYTQDFHRLQTYPKTDVGANAP (not fully specified; ends and bridges not checked)",4,–,–,–
–,–,"KBP-048: Calcitonin mimetic peptide, Table 1 residues CGNLSTCMLGTYTQDFNKFNTFPKTDVGANAP",4,–,–,–
–,–,"KBP-050: Calcitonin mimetic peptide, Table 1 residues CGNLSTCMLGRLSQDLHRLQTYPKTAIGVGAP (not fully specified; ends and bridges not checked)",4,–,–,–
–,–,"KBP-051: Calcitonin mimetic peptide, Table 1 residues CSNLSTCMLGRLSQDLHRLQTYPKTAIGVGAP (not fully specified; ends and bridges not checked)",4,–,–,–
–,–,"KBP-052: Calcitonin mimetic peptide, Table 1 residues CSNLSTCMLGTYTQDFHRLQTYPKTAIGVGAP (not fully specified; ends and bridges not checked)",4,–,–,–
–,–,"KBP-054: Calcitonin mimetic peptide, Table 1 residues CGNLST, positions 7-8 blank, LGRYTQDFHKPQTFPKTDVGANAP",4,–,–,–
–,–,"KBP-059: Calcitonin mimetic peptide, Table 1 residues CGNLSTCMLGTYTQDLHKLHTFPKTDVGANAP (not fully specified; ends and bridges not checked)",4,–,–,–
–,–,"KBP-060: Calcitonin mimetic peptide, Table 1 residues CGNLSTCMLGTYTQDFHRLQTFPQTDVGANAP",4,–,–,–
–,–,"KBP-061: Calcitonin mimetic peptide, Table 1 residues CGNLSTCMLGTYTQDFHRLQTFPQTDVGANAP (printed identical to KBP-060) (not fully specified; ends and bridges not checked)",4,–,–,–
